In paper PMC9558053, “Development of a novel high-throughput screen for the identification of new inhibitors of protein S-acylation” (The Journal of Biological Chemistry, 2022):

Target: T1, human zDHHC7 (Homo sapiens, UniProt Q9NXF8)
T1 construct: expressed in transfected cells; host or cells: HEK293T
T1 sequence (Q9NXF8 1-308): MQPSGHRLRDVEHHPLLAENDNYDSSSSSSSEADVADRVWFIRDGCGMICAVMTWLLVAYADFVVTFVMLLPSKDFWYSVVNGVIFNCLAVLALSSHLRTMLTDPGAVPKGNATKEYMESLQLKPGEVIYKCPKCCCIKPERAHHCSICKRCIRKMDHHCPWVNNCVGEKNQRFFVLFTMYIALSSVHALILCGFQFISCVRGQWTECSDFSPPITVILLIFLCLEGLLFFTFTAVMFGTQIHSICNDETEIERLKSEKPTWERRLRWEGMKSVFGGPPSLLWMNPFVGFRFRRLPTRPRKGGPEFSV
Experiment: PSD95-mCHERRY S-acylation in HEK293T cells co-expressing zDHHC7
Assay type: cell-based
Conditions: 25 μM
Excerpt: PSD95 (postsynaptic density protein 95) is a major S-acylated protein that has a critical role in the maturation of excitatory neurons and in synaptic plasticity ([46], [47]). PSD95 can be S-acylated by zDHHC2, zDHHC3, zDHHC7, and zDHHC15 ([6]). […] We therefore tested the effects of TTZ-1 and TTZ-2 on the S-acylation of PSD95 mediated by zDHHC2, zDHHC3, zDHHC7, and zDHHC15. […] In contrast, zDHHC3 and zDHHC7 activities toward PSD95 were unaffected by TTZ-1 and TTZ-2, mirroring the data obtained with GFP-SNAP25 as a substrate.
Figure 9 Activity of TTZ-1 and TTZ-2 against PSD95 S-acylation mediated by human zDHHC2, zDHHC3, zDHHC7, and zDHHC15 expressed in mammalian cells. HEK293T cells were transfected with a plasmid encoding PSD95-mCHERRY together with either a control plasmid pEF-BOS-HA (pEF) or a plasmid encoding either HA-tagged human zDHHC2 (zD2), zDHHC3 (zD3), zDHHC7 (zD7), or zDHHC15 (zD15) for 24 h. Cells were then preincubated for 4 h with TTZ-1 or TTZ-2 (25 μM final) or DMSO control before metabolic labeling with 100 μM C16:0-azide for 4 h. Cells were lysed, and proteins having incorporated C16:0-azide were labeled by click chemistry with an alkyne-IR800 dye. […] The data were quantified, and the graphs below each set of membranes show mean ± SEM of normalized S-acylation of PSD95-mCHERRY (click signal/RFP signal). […]

Row | SMILES | PSD95-mCHERRY S-acylation by zDHHC7
1 | O=C(Nc1cccc2c1OC(c1nnn[nH]1)CN2)c1ccc(OCCCCc2ccccc2)cc1 (centres unmarked) [TTZ-2, N-(2-(1H-Tetrazol-5-yl)-3,4-dihydro-2H-benzo[b][1,4]oxazin-8-yl)-4-(4-phenylbutoxy)benzamide] | unaffected
2 | CCCCCCCOc1ccc(C(=O)Nc2cccc3c2OC(c2nnn[nH]2)CN3)cc1 (centres unmarked) [TTZ-1, N-(2-(1H-Tetrazol-5-yl)-3,4-dihydro-2H-benzo[b][1,4]oxazin-8-yl)-4-(heptyloxy)benzamide] | unaffected
